Measured values as given in US4861793A, “D-nor-7-ergoline derivatives having anti-Parkinson and antipsychosis activity and pharmaceutical compositions containing them” (Farmitalia Carlo Erba, S.p.A, priority 1986, dated 1989).

Legend:
α2 receptors = target: T1, α2 receptors (Rattus norvegicus, UniProt P22909); test: affinity to α2 receptors (test described by Djop, J. Neurochemistry, 41, p. 710 (1983)); assay type: binding; details: α2 receptor; IC means inhibitory concentration
T1 construct: from tissue
T1 sequence (P22909 1-465): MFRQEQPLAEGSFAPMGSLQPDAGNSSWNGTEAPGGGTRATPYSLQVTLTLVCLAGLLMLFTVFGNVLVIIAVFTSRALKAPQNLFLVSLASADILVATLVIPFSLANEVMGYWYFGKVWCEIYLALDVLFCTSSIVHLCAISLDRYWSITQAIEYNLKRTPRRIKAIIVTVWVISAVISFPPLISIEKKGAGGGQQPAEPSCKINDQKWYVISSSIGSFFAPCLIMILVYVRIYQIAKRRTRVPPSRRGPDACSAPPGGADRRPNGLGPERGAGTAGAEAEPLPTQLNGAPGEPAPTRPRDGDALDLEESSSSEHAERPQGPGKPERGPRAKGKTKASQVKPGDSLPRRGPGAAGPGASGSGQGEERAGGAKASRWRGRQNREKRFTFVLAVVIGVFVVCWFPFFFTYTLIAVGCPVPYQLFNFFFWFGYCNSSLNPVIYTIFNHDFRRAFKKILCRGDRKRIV
Source text: (§1) The activity of the compounds of the present invention has been confirmed by their affinity to α2 and D1 receptors, according to the tests described by Djop, J. Neurochemistry, 41, p. 710 (1983) and by Billard et al., Life Science, p. 35 (1985).

D1 receptors = target: T2, D1 receptors (Rattus norvegicus, UniProt P18901); test: affinity to D1 receptors (test described by Billard et al., Life Science, p. 35 (1985)); assay type: binding; details: D1 receptor; IC means inhibitory concentration
T2 construct: from tissue
Source text: as §1

T2 sequence (P18901 whole entry): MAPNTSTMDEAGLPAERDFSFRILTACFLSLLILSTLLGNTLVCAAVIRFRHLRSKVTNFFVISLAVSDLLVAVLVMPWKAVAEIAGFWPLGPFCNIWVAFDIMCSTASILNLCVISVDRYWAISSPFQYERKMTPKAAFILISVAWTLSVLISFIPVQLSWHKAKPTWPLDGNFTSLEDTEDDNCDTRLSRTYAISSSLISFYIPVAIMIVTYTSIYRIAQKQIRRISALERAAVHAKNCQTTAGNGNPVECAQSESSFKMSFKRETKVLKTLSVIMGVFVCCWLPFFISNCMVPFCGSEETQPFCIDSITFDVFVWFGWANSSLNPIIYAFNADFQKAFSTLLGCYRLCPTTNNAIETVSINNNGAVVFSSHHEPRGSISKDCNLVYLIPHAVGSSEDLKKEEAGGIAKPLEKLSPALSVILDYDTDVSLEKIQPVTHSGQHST

IC50 (α2 receptors) | IC50 (D1 receptors) | SMILES
0.4 nM | 0.9 nM | CCNC(=O)N(CCCN(C)C)C(=O)CC1CC2c3cccc4[nH]cc(c34)CC2N1C [Example 6, D-nor-6-methyl-7[N-(3-dimethylaminopropyl)-N-(ethylcarbamoyl)]-carbamoylmethyl-ergoline]
0.04 nM | 0.7 nM | CN1C(CCNC(=O)OCc2ccccc2)CC2c3cccc4[nH]cc(c34)CC21 [Example 8, D-nor-6-methyl-7-benzyloxycarbamoylethyl-ergoline]
0.05 nM | 0.4 nM | CN1C(CCN2CC(=O)NC2=O)CC2c3cccc4[nH]cc(c34)CC21 [Example 10, D-nor-6-methyl-7-(2,4-dioxo-1-imidazolidinyl-ethyl)-ergoline]
